Reference: patent US20100297262A1, “[…] ACTIVE COMPOSITIONS COMPRISING OXIDATIVE STRESS MODULATORS (OSM), NEW CHEMICAL […], COMPOSITIONS AND USES” (COLBY PHARMACEUTICAL COMPANY, priority 2009, published 2010)
Like-named read-outs stand apart in the source and are kept apart here.

Columns and labels:
[1] = test system: LNCaP cells; assay: DNA (Hoechst 33258) fluorescence cell growth assay, Example 12; format: cell-based, human; conditions: for cell growth (DNA fluorescence) with logarithmic increase in SAHA concentration: SAHA 0-10 μM
[2] = test system: siSSAT clone; assay: ROS production in siSSAT clone; format: cell-based, human; conditions: R1881 treatment
[3] = test system: LNCaP cells transfected with the control vector containing scrambled sequence; assay: ROS production in vector control cells; format: cell-based, human; conditions: R1881 treatment
[4] = test system: LNCaP cells; conditions: cited from earlier work
[5] = test system: acetyl histone H4; assay: Western blot analysis of acetylated histones
[6] = test system: Isolated liver mitochondria; conditions: Treatment: Ferrous iron/ascorbate; cited from earlier work
[7] = test system: Isolated kidney mitochondria; conditions: Treatment: Superoxide; cited from earlier work
[8] = test system: Jurkat cells; conditions: Treatment: H2O2; cited from earlier work
[9] = test system: Bovine aortic endothelial cells; conditions: Treatment: H2O2 or hydroperoxyoctadecadienoic acid; cited from earlier work
[10] = test system: Friedreich's ataxia patient primary skin fibroblasts; conditions: Treatment: Glutathione depletion; cited from earlier work
[11] = test system: COS-7 cells; conditions: Treatment: H2O2; cited from earlier work
[12] = test system: Rat primary cerebellar granule cells; conditions: Treatment: Ethanol; cited from earlier work
[13] = test system: Human colon cancer cell lines (HCT116 and RKO); conditions: Treatment: 5-Fluorouracil; cited from earlier work
[14] = test system: HDAC
From the text: The HDAC activity is expressed as a ratio of HDAC product fluorescence/DNA fluorescence in relative fluorescence unit (FU).

[15] = test system: superoxide dismutase (SOD); assay: SOD assay; format: cell-based, human; conditions: pretreated with 0.05 nM or 1 nM R1881 prior to 10 μM SAHA
[16] = test system: all cell lines; assay: DNA fluorescence cell growth assay, cell lines taken together; format: cell-based, human
[17] = patients, oral SAHA 400 mg qd, cited from earlier work
[18] = test system: recurrent glioblastoma multiforme; conditions: compared to 4-4.4 months in earlier studies; cited from earlier work
[19] = test system: advanced non-small-cell lung cancer (NSCLC); conditions: survival improvements not significant at P=0.05; cited from earlier work
[20] = test system: latently HIV infected T-Cells; conditions: cited from earlier work
[21] = test system: PC-3 cells; assay: DNA fluorescence cell growth assay; conditions: SAHA below 10 μM
[22] = test system: HT-29; assay: DNA fluorescence cell growth assay; conditions: Vitamin E pretreated
[23] = test system: MDA-MB231; assay: DNA fluorescence cell growth assay; conditions: Vitamin E pretreated
[24] = test system: A549; assay: DNA fluorescence cell growth assay; conditions: any concentration of SAHA
[25] = test system: NCI-H460; assay: DNA fluorescence cell growth assay; conditions: any concentration of SAHA
[26] = test system: LNCaP cells; assay: LC-MS estimation of intracellular SAHA concentration; conditions: Vitamin E pretreated cells, first 24 hours
Description: Ten μL of each extract was used for LC-MS analysis, and the assay was repeated three times.
The solvent gradient and the flow rates were adjusted appropriately. A 5 minute post-run column wash at 10% solvent A, 90% solvent B was maintained at 0.2 ml/min. The column thermostat was maintained at 25° C. for the complete run.
The Mass detector for the mass detection was carried out with Agilent 1100 quadruple moment bench-top mass spectrometer with electrospray ionization in the positive ion mode at 3000 V. For both the single ion MS and scanning MS/MS mode, the desolvation temperature was 340° C. with the drying gas flow rate of 12 l/min at a nebular pressure of 40 psig. […] All data were collected, stored and analyzed using Agilent software for data collection, peak detection and integration.

[27] = test system: LNCaP cells; assay: Cellular ROS as ratio DCF fluorescence:DNA fluorescence, Example 12
From the text: Fluorescence of oxidized DCF dye is proportional to the total cellular ROS. When DCF fluorescence is normalized with the DNA fluorescence from the same well of the 96-well plate, the ratio DCF fluorescence:DNA fluorescence is proportional to the ROS generated per cell.

[28] = test system: DU-145; assay: Growth of human prostate tumor cells in culture, PMCol; format: cell-based
Description: (§1) Pharmacokinetic (PK) studies of PMCol in mice administered 100 mg/kg PMCol p.o. or 5 mg/kg of PMCol i.v., using Liquid Chromatography-Mass Spectroscopic (LC-MS) analyses.
(§2) Mito-PMCol analogs and PMCol were compared for their relative cytostatic/anti-proliferative and cytotoxic and therapeutic activities in tumor cell systems as measured by clonogenic assays and direct live and dead cell counts are performed in a hemacytometer by trypan blue dye exclusion assay or by DNA fluorescence assays following routine published procedures established in our labs.

[29] = test system: LAPC4; assay: as above; format: cell-based
Description: as §1, §2

[30] = test system: LNCaP; assay: as above; format: cell-based
Description: as §1, §2

[31] = test system: spontaneous TRAMP mouse tumors; assay: TRansgenic Adenocarcinoma of Mouse Prostate (TRAMP) model; format: in vivo
Description: The inhibitory effect of PMCol on prostate tumor growth is tested in the well characterized […] Adenocarcinoma of Mouse Prostate (TRAMP) model. […] Tumor development in PMCol treated animals was delayed by over 8 weeks as compared to the control animals.

[32] = in vivo
Description: as §1

[33] = in vivo; conditions: mouse
Description: (§3) In order to test the efficacy of PMCol-C2 or Mito-PMCol-C10 in inhibiting growth of prostate tumors in vivo, the PMCol drug formulation was standardized, the route of its administration was determined and determination of the maximum tolerated dose (MTD), when administered orally or by i.v. injection.

[34] = rat, in vivo, po
Description: as §3

[35] = format: physicochemical; conditions: pH 2
[36] = test system: PC-3 cells; assay: Cellular ROS as ratio DCF fluorescence:DNA fluorescence; conditions: 20 μM Vitamin E (non-toxic dose)
[37] = Distribution and clearance of alkylTPP compounds (i.v., feeding tritiated compounds, drinking water); conditions: mice
[38] = agent alone: 20 μM Vitamin E, 1 nM R1881 or 2 μM SAHA

C[C@]1(O)CC[C@H]2[C@@H]3CCC4=CC(=O)CCC4=C3C=C[C@@]21C [R1881]
effect on LNCaP cell growth ([1]; 0.05 nM R1881): growth stimulatory
effect on LNCaP cell growth ([1]; 1 nM or above): growth inhibitory effect
ROS production [2]: no significant effect on ROS production
ROS production [3]: marked increase
cellular ROS (DCF dye oxidation) compared to 1-10 nM ([4]; R1881 concentrations less than 0.1 nM, Ripple et al. 1997): significantly lower cellular ROS
cellular ROS (DCFH-DA dye oxidation) compared to 1 nM to 10 nM ([4]; metribolone concentrations less than 1 nM, Ripple et al 1997): significantly lower cellular ROS
acetyl-histone H4 level [5, 38]: little effect on the acetyl-histone H4 level

Cc1c(C)c2c(c(C)c1O)CCC(C)(CC[P+](c1ccccc1)(c1ccccc1)c1ccccc1)O2 (stereo not drawn) [MitoVE-C2]
Outcome: lipid peroxidation, protein carbonyl formation and loss of membrane potential [6]: Decreases lipid peroxidation,
Outcome: activation of uncoupling proteins [7]: Blocks activation of
Outcome: apoptosis [8]: Decreases apoptosis
Outcome: transferrin receptor expression and iron uptake [9]: fluorescence. Decreases
Outcome: cell death [10]: Decreases cell death
Outcome: growth factor receptor and kinase phosphorylation [11]: Decreases growth factor
Outcome: dichlorofluorescein fluorescence and cell death [12]: Decreases
Outcome: apoptosis from 5-FU chemotherapy [13]: Decreases apoptosis from 5-

O=C(CCCCCCC(=O)Nc1ccccc1)NO [SAHA, Suberoylanilide hydroxamic acid]
cell growth (DNA fluorescence) with logarithmic increase in SAHA concentration ([1]; no R1881): inhibited almost linearly
cell growth (DNA fluorescence) ([1]; normal androgen level (1 nM R1881), even at 10 μM SAHA): little effect on cell growth
cell growth (DNA fluorescence) with logarithmic increase in SAHA concentration ([1]; pretreated with 0.05 nM R1881): inhibited almost linearly
cell growth (DNA fluorescence) ([1]; pretreated with 2 nM R1881, all SAHA concentrations tested): negligible effect on cell growth
HDAC activity with increasing concentrations of SAHA ([14]; R1881 untreated vector control cells, androgen-treated and untreated siSSAT cells): decreases in a similar fashion
HDAC activity with increasing concentrations of SAHA ([14]; vector control cells pretreated with 1 nM R1881): increases after an initial decrease
SOD activity of LNCaP cells [15]: no significant difference in the SOD activity
nature of the increase in SAHA sensitivity (formalism of Chou and Talalay) ([16]; Vitamin E pretreatment followed by SAHA): synergistic
activity at clinically achievable serum level (~1.3 μM) ([16]; cell lines untreated with Vitamin E or another similar anti-oxidant): inactive
sensitivity to SAHA at a concentration much below the clinically achievable serum level ([16]; prostate, breast and colon cancer cells pretreated with anti-oxidants such as Vitamin E): highly sensitive
serum SAHA level [17]: ~349 ng/mL
serum SAHA level ([17]; clinically achievable): ~1.3 µM
median overall survival [18]: 5.7 months
response and survival [19]: improved response rates and increased median progression free survival and overall survival
effects against latently HIV infected T-Cells [20]: both in vitro and in vivo effects
resistance of PC-3 cells to SAHA [21]: intrinsically resistant
SAHA sensitivity compared to Vitamin E untreated cells [22]: higher in Vitamin E pretreated cells
SAHA sensitivity compared to Vitamin E untreated cells [23]: higher in Vitamin E pretreated cells
change of SAHA sensitivity after Vitamin E pretreatment [24]: do not show any appreciable increase in SAHA sensitivity
change of SAHA sensitivity after Vitamin E pretreatment [25]: do not show any appreciable increase in SAHA sensitivity
acetyl-histone H4 level ([5]; 1 nM R1881 pretreated cells + 2 μM SAHA): marked decrease
acetyl-histone H4 level [5, 38]: small, but significant increase
intracellular SAHA level [26]: no significant decrease
cellular ROS (DCF/DNA fluorescence) with increase in SAHA concentration ([27]; no R1881): ROS increases
cellular ROS (DCF/DNA fluorescence) with increase in SAHA concentration ([27]; pretreated with 0.05 nM R1881): negligible effect on total cellular ROS levels
cellular ROS (DCF/DNA fluorescence) with increase in SAHA concentration ([27]; pretreated with 2 nM R1881): negligible effect on total cellular ROS levels

Cc1c(C)c2c(c(C)c1O)CCC(C)(C)O2 [PMCol, 2,2,5,7,8-pentamethyl-6-chromanol]
growth of androgen-independent DU-145 cells in culture [28]: inhibits the growth
growth of androgen-dependent LAPC4 cells in culture [29]: inhibits the growth
growth of androgen-dependent LNCaP cells in culture [30]: inhibits the growth
delay of tumor development as compared to the control animals ([31]; TRAMP model, PMCol treated animals): over 8 weeks
growth of spontaneous TRAMP mouse tumors ([31]; mouse, in vivo): inhibits the growth
oxidized metabolite ([32]; mouse, in vivo): ring-opened PMQ
bioavailability in blood serum ([32]; mouse, in vivo, iv): 0.5 mg/kg
half-life ([32]; mouse, in vivo, iv): 2 h
time after injection within which serum levels went down quickly ([32]; mouse, in vivo, iv, 5 mg/kg): ≤ 2 h
bioavailability in blood serum ([32]; mouse, in vivo, po): 4 mg/kg
half-life ([32]; mouse, in vivo, po): 0.5 h
in vivo metabolism ([32]; mouse, in vivo, po): oxidized in vivo to the hydroxylated-PMCol
time after administration within which serum levels went down quickly ([32]; mouse, in vivo, po, 100 mg/kg): ≤ 15 min
safety of administration [33]: safely administered
MTD ([33]; iv): 7.5 mg/kg
MTD ([33]; po): 100 mg/kg
DLT [34]: 2 grams/kilogram/day
acid stability [35]: lability

Cc1c(C)c2c(c(C)c1OC(=O)CCC(=O)O)CC[C@@](C)(CCC[C@H](C)CCC[C@H](C)CCCC(C)C)O2 [Vitamin E, αTocopherol succinate]
acetyl histone H4 level ([5]; Vitamin E + R1881 + SAHA): almost completely restores
acetyl-histone H4 level [5, 38]: little effect on the acetyl-histone H4 level
ROS levels [36]: markedly reduces the ROS levels
ROS levels ([27]; 20 μM Vitamin E (non-toxic dose), LNCaP treated and untreated with R1881): markedly reduces the ROS levels

CC1=C(C)C(=O)C(CCC(C)(C)O)=C(C)C1=O [PMQ, 2-(3-hydroxy-3-methylbutyl)-3,5,6-trimethyl-1,4-benzo-quinone]
time the metabolite remained in the serum ([32]; mice, oral PMCol, last time point of PK studies): at least 24 hours
appearance of the LC-MS peak in serum after oral administration of PMCol ([32]; mouse, in vivo, po): appears in serum within minutes

CC1(C)CC(OCCCCC[P+](c2ccccc2)(c2ccccc2)c2ccccc2)CC(C)(C)N1[O].[Br-] [Mito-Tempol]
redistribution once in the bloodstream [37]: rapidly redistribute into organs
